Experimental data taken from patent publication US20250375436A1, “SERDEXMETHYLPHENIDATE FOR TREATMENT OF IDIOPATHIC HYPERSOMNIA” (ZEVRA THERAPEUTICS, INC., priority 2024, published 2025).

Assays:
Type in all cases: in vivo, human
adults with IH [1] = assay: Phase 2 IH study: Sleep Inertia Visual Analog Scale (SI-VAS); conditions: for SI-VAS, Mean, Titration Baseline: before treatment; for SI-VAS, Mean, Randomization Baseline (Week 5): end of open-label titration; for SI-VAS, Difference in LS Mean (SE): SDX vs placebo, ANCOVA; for Decrease in mean SI-VAS score: 5-week titration period
Text: “Sleep Inertia Visual Analog Scale” or “SI-VAS,” as it relates to the present technology, is a psychometric response scale to assess how difficult it was for the patient to wake up in the morning. The SI-VAS is a unipolar scale anchored at 0 (“very easy”) and 100 (“very difficult”).
(§1) A double-blind, placebo-controlled, randomized-withdrawal, dose-optimizing, multi-center study investigated the safety and efficacy of serdexmethylphenidate for the treatment of IH. Twenty-two (22) patients completed a 7-week study consisting of two parts. Part 1 of the trial comprised a five-week open-label titration phase during which patients were optimized to one of four total daily doses of serdexmethylphenidate (80, 160, 240, or 320 mg/day). About half the study participants were assigned to take the total daily dose of study drug once per day just before going to bed (QD dosing cohort). The other half was instructed to take half the daily dose of study drug in the morning after awakening and the second half of the daily dose just before going to bed (BID dosing cohort). The titration procedure during the 5-week open label period was conducted as follows: patient treatment was initiated with the lowest total daily dose (80 mg/day) regardless of dosing regimen. At subsequent clinical visits scheduled at intervals of about 1 week each, the dose of the patient was either decreased (except after the first week), maintained, or increased based on tolerability, clinical effect, and adverse events. Depending on the severities of any dose-limiting effects as determined by the clinician, the dose was decreased if possible or the patient was discontinued from the study. If the dose was tolerated by the patient and the clinician determined an opportunity to improve effectiveness, the dose of study drug was increased if possible. Otherwise, the dose was maintained in the subsequent week.
(§2) Part 2 of the trial comprised a two-week randomized (2:1), double-blind, withdrawal phase, during which two-thirds of the trial participants continued to receive their optimized dose while the remaining one-third received placebo. During the withdrawal phase, patients continued the same dosing regimen (QD or BID) they were assigned to at treatment initiation and adhered to during the titration phase.
(§3) Secondary efficacy endpoints included Excessive Daytime Sleepiness (EDS) assessed with the Epworth Sleepiness Scale (ESS). Additional secondary endpoints were based on the Idiopathic Hypersomnia Severity Scale (IHSS), daily rating of difficulty of waking up in the morning assessed with the Sleep Inertia Visual Analog Scale (SI-VAS), and rating of brain fog symptoms measured with an exploratory Brain Fog Scale (BFS). Scores on the ESS, IHSS, and BFS were based on a 1-week look-back period.
The SI-VAS is a unipolar scale anchored at 0 (“very easy”) and 100 (“very difficult”). The horizontal dashed line at an SI-VAS score of 50 points represents the midpoint between individuals finding it very easy to awaken and individuals finding it very difficult to awaken in the morning. SI-VAS Patients on the QD dosing schedule reported a decrease of about 33 points in mean SI-VAS score over the 5-week titration period while being treated with conjugate of d-methylphenidate, while patients on the BID dosing schedule reported a decrease in mean SI-VAS of about 24-30 points.

[2] = Single oral dose of 240 mg serdexmethylphenidate in the morning or at night before bedtime, randomized crossover; plasma d-MPH PK by LC/MS-MS; conditions: evening vs morning dosing
Description: Heathy adult subjects received single oral doses of 240 mg serdexmethylphenidate, either in the morning or at night, just before bedtime, in a randomized crossover fashion with a washout of 6 days between treatments. Subjects went to bed and nighttime conditions were maintained after administration of the evening dose. Multiple blood PK samples and safety parameters were collected after each administration. d-MPH was measured with a validated LC/MS-MS method. A total of 15 subjects (9 males/6 females) were randomized with 14 completing both treatments.

adults with IH [3] = assay: Phase 2 IH study: Brain Fog Scale (BFS); conditions: for Brain Fog, Mean, Titration Baseline: before treatment; for Brain Fog, Mean, Randomization Baseline (Week 5): end of open-label titration; for Brain Fog, Difference in LS Mean (SE): SDX vs placebo, ANCOVA
Text: “Brain Fog Symptom Score” or “BFS” as it relates to the present technology, means the total score collected with a 19-item questionnaire asking the respondents to describe their mental state while experiencing “Brain Fog” during the last week. The currently recognized 19 mental states of BF include forgetful, difficulty thinking, difficulty focusing, cloudy, difficulty finding the right words/communicating, mental fatigue, slow, mind went blank, spacey, difficulty processing what others say, exhausted, easily distracted, difficulty processing words read, confused, annoyed, sleepy, lost, detached, thoughts moving too quickly. Each item is answered based on a 0 to 4-point Likert scale where 0 means “strongly disagree” and 4 means “strongly agree”.
as §1, §2, §3
The BFS scale is based on a 19 item questionnaire where each question is scored on a 0-4 Likert scale where a score of 0 means “strongly disagree”, a score of 2 means “neutral”, and a score of 4 means “strongly agree”. Possible BFS total scores range from 0 to 76. The horizontal dashed line at a BFS score of 38 points represents the total BFS score of for “neutral” responses to all 19 questions.

[4] = Comparator study with Ritalin: plasma d-MPH PK; conditions: plasma d-MPH
Description: Ritalin is a racemate of d-methylphenidate approved for treating narcolepsy, which is a similar disorder of hypersomnolence characterized by significant excessive daytime sleepiness. The PK profiles of patient administered 80 mg or 200 mg of serdexmethylphenidate are compared to the PK profiles of patients administered 40 mg of Ritalin twice, 5 hours apart, and a single dose of 80 mg of Ritalin.

Structure (SMILES): COC(=O)[C@H](c1ccccc1)[C@H]1CCCCN1C(=O)OC[n+]1cccc(C(=O)N[C@@H](CO)C(=O)O)c1 [SDX, serdexmethylphenidate]
- SI-VAS, Mean Change from Randomization Baseline to Week 7 (adults with IH [1]; BID Cohort, SDX (N = 17)): 1.1
- SI-VAS, Mean, End of Withdrawal Period (Week 7) (adults with IH [1]; BID Cohort, SDX (N = 17)): 49.0
- SI-VAS, Mean, Titration Baseline (adults with IH [1]; BID Cohort, SDX (N = 17)): 68.5
- SI-VAS, Mean, Randomization Baseline (Week 5) (adults with IH [1]; BID Cohort, SDX (N = 17)): 45.0
- SI-VAS, Difference in LS Mean (SE) (adults with IH [1]; BID Cohort, p-value 0.104): −10.0 (5.98)
- Decrease in mean SI-VAS score (adults with IH [1]; BID dosing schedule): 24-30 points
- SI-VAS, Mean Change from Randomization Baseline to Week 7 (adults with IH [1]; QD Cohort, SDX (N = 15)): 5.9
- SI-VAS, Mean, End of Withdrawal Period (Week 7) (adults with IH [1]; QD Cohort, SDX (N = 15)): 40.4
- SI-VAS, Mean, Titration Baseline (adults with IH [1]; QD Cohort, SDX (N = 15)): 68.8
- SI-VAS, Mean, Randomization Baseline (Week 5) (adults with IH [1]; QD Cohort, SDX (N = 15)): 35.1
- SI-VAS, Difference in LS Mean (SE) (adults with IH [1]; QD Cohort, p-value 0.208): 8.2 (6.39)
- Decrease in mean SI-VAS score (adults with IH [1]; QD dosing schedule): about 33 points
- Increase in mean SI-VAS score (adults with IH [1]; both QD and BID cohorts continuing treatment, 2-week withdrawal period): less than 6 points
- Total plasma exposure to d-methylphenidate (AUC0-24h and AUCinf) [2]: similar
- Brain Fog, Mean Change from Randomization Baseline to Week 7 (adults with IH [3]; BID Cohort, SDX (N = 17)): 1.5
- Brain Fog, Mean, End of Withdrawal Period (Week 7) (adults with IH [3]; BID Cohort, SDX (N = 17)): 30.1
- Brain Fog, Mean, Titration Baseline (adults with IH [3]; BID Cohort, SDX (N = 17)): 52.4
- Brain Fog, Mean, Randomization Baseline (Week 5) (adults with IH [3]; BID Cohort, SDX (N = 17)): 28.6
- Brain Fog, Difference in LS Mean (SE) (adults with IH [3]; BID Cohort, p-value 0.060): −13.7 (7.07)
- Brain Fog, Mean Change from Randomization Baseline to Week 7 (adults with IH [3]; QD Cohort, SDX (N = 15)): 0.9
- Brain Fog, Mean, End of Withdrawal Period (Week 7) (adults with IH [3]; QD Cohort, SDX (N = 15)): 28.5
- Brain Fog, Mean, Titration Baseline (adults with IH [3]; QD Cohort, SDX (N = 15)): 52.3
- Brain Fog, Mean, Randomization Baseline (Week 5) (adults with IH [3]; QD Cohort, SDX (N = 15)): 27.5
- Brain Fog, Difference in LS Mean (SE) (adults with IH [3]; QD Cohort, p-value 0.995): 0.0 (7.50)
- Decrease in mean BFS score (adults with IH [3]; all patients, 5-week titration period): 19-25 points
- Change in mean BFS score (adults with IH [3]; patients continuing treatment during the 2-week withdrawal period): no more than 1.5 points
- CL/F - Geo Mean ([4]; SDX 80 mg (N = 14)): (283) L/h
- CL/F - Geo Mean ([4]; SDX 200 mg (N = 14)): (304) L/h
